In patent US12435062B2, “Amide compounds and uses thereof” (HUTCHISON MEDIPHARMA LIMITED, priority 2020, dated 2025):

Tests used:
[1] = target: Recombinant human CSF1R kinase (Homo sapiens (Human), UniProt P07333); format: biochemical; conditions: Z-LYTE Tyr 1 peptide substrate
Protocol: Measurement of CSF1R Kinase Activity at Molecular Level
1. Reagents and materials:
• Z-LYTE™ Tyr 1 peptide substrate: Invitrogen, PV3190; • 5× kinase buffer: Invitrogen, PV3189; • 10 mM ATP: Invitrogen, PV3227; • Development reagent B: Invitrogen, PV3295; • Development buffer: Invitrogen, P3127; • Stopping solution: Invitrogen, P3094; • Recombinant human CSF1R kinase: Invitrogen, PR4598A; • 384 well plate, black: Corning, 3575; Envision: Perkin Elmer. 2. Preparation of reaction solutions
1) 1.33× kinase buffer: 5× kinase buffer was diluted to a 1.33× kinase buffer with ddH2O.
2) Dilution of a 4× test compound: The test compound was diluted in gradient to 4-fold the reaction concentration and the concentration of DMSO was kept at 8%. The final concentration of the compound in reaction was: 1, 0.33, 0.11, 0.037, 0.012, 0.004, 0.0014, 0.00046 μM, and the final concentration of DMSO was 2%.
3) A mixture of kinase/peptide substrate: In 1.33× kinase buffer, the kinase and Z-LYTE™ Tyr 1 peptide substrate were diluted to 0.12 μg/mL and 4 μM, respectively, to prepare a mixture of kinase/peptide substrate. The mixture was mixed gently with a pipette.
4) A phosphorylated peptide substrate solution (PP solution): 0.4 μL of Z-LYTE™ Tyr1 phosphorylated peptide substrate was added to 99.6 μL of 1.33× kinase buffer.
5) ATP solution: 10 mM of ATP was diluted to 760 μM with 1.33× kinase buffer to prepare ATP solution.
6) Development solution: Development reagent B was diluted with Development buffer at a ratio of 1:200.
1) Kinase reaction (10 μL system)
2.5 μL of 4× test compound was added to each reaction well of the 384 plate, and the corresponding volume of 8% DMSO was added to the control well. The plate was placed on ice. 5 μL of a mixture of kinase/peptide substrate, 2.5 μL of kinase buffer and ATP solution were successively added to each well. Three control groups were set up: Group C1 contains only kinase buffer, group C2 contains the mixture of kinase/peptide substrate, kinase buffer and ATP, and group C3 contains 5 μL of PP solution. After adding the reaction components, the 384-well plate was sealed and incubated at 25-30° C. for 1 h in dark.
5 μL of Development solution was added to each well, sealed and incubated at 25-30° C. for another 1 h in dark.
3) Reaction stopping and plate reading
5 μL of stopping solution was added to each well. The Coumarin value (excitation at 400 nm, emission at 445 nm) and Fluorescein value (excitation at 400 nm, emission at 520 nm) were measured, respectively.
ER (emission ratio): Coumarin emission read-out (445 nm)/Fluorescein emission read-out (520 nm); • C3 445 nm: 100% phosphorylated Coumarin emission read-out; • C3 520 nm: 100% phosphorylated Fluorescein emission read-out; • C1 445 nm: 0% phosphorylated Coumarin emission read-out; • C1 520 nm: 0% phosphorylated Fluorescein emission read-out. Inhibition rate % (IR)=[1−% phosphorylation ratetest sample/100% phosphorylation ratecontrol]×100%
% phosphorylation ratetest sample: phosphorylation rate of the test compound; • 100% phosphorylation ratecontrol: phosphorylation rate of C3 control group.
5. IC50 values: calculated by using software XL-Fit™ (version 5.3) supplied by ID Business Solutions (Guildford, UK), which is an additional software to Microsoft Excel.

[2] = target: CSF1R phosphorylation in THP-1 cells (Homo sapiens (Human), UniProt P07333); assay: Detection of CSF1R phosphorylation activity at cell level (THP-1, M-CSF stimulated, ELISA); format: cell-based; conditions: p-CSF1R ELISA, compound 60 min, 300 ng/mL M-CSF 1 min
Procedure, shortened: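 THP-1 cells (5×10^4/well, RPMI 1640, 2% FBS) were pre-treated with compound for 60 min at 37 °C, then stimulated with 300 ng/mL M-CSF for 1 min and lysed. Phospho-CSF1R was read by sandwich ELISA (p-CSF1R capture, anti-phosphotyrosine-HRP detection, OD 450/570 nm). IC50 was fitted with cell-free wells as background.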

Ba/F3^BCR-FMS-11 cells = assay: Cell proliferation experiment (Ba/F3^BCR-FMS-11, cckit-8); format: cell-based, mouse; conditions: Mus musculus, Ba/F3^BCR-FMS-11 cell proliferation
Procedure, shortened: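 Ba/F3 cells stably expressing BCR-FMS, CSF-1R-dependent for growth, seeded at 5000/well in RPMI 1640 with 10% FBS and exposed to 8 compound concentrations for 72 h at 37 °C.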

Chain of CSF1R phosphorylation in THP-1 cells (P07333 20-972): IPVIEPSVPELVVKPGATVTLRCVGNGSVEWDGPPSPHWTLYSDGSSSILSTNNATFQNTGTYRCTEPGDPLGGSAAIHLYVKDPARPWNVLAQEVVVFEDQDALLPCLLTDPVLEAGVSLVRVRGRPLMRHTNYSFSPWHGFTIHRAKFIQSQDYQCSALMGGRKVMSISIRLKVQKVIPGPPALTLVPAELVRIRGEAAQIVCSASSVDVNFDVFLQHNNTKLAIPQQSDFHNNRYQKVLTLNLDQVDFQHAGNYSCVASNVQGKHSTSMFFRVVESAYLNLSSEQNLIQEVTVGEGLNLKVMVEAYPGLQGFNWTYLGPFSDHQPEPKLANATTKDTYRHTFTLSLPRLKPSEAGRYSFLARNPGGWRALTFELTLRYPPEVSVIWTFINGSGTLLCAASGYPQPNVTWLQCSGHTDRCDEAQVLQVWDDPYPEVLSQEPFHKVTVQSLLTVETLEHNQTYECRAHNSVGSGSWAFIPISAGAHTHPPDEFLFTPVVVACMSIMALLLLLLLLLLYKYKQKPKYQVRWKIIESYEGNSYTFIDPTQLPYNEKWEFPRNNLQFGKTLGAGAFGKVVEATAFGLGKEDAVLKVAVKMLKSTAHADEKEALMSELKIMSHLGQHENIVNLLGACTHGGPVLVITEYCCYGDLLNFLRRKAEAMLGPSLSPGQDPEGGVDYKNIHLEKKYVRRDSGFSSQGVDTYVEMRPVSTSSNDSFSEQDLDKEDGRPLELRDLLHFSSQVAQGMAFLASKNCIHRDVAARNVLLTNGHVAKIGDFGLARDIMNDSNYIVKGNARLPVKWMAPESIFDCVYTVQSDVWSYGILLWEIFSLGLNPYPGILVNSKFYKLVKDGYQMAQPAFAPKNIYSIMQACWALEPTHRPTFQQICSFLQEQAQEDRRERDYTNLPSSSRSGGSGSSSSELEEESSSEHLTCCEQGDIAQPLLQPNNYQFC
Chain of Recombinant human CSF1R kinase (P07333 20-972): as above

Structure (SMILES)	IC50 [1]	IC50 [2]	IC50 (Ba/F3^BCR-FMS-11 cells; 72 h)	IC50 (Ba/F3^BCR-FMS-11 cells; 72 hours)
CC(C)n1cccc(C(=O)Nc2ccc(Oc3ccnc(-c4cnn(CCO)c4)c3)cn2)c1=O [Compound 95, N-(5-((2-(1-(2-hydroxyethyl)-1H-pyrazol-4-yl)pyridin-4-yl)oxy)pyridin-2-yl)-1-isopropyl-2-oxo-1,2-dihydropyridine-3-carboxamide]	8 nM	16 nM	14 nM	–
CC(C)n1cccc(C(=O)Nc2ccc(Oc3ccnc(Nc4cnn(C)c4)c3)cn2)c1=O [Compound 96, 1-isopropyl-N-(5-((2-((1-methyl-1H-pyrazol-4-yl)amino)pyridin-4-yl)oxy)pyridin-2-yl)-2-oxo-1,2-dihydropyridine-3-carboxamide]	8 nM	8 nM	10 nM	–
Cn1cc(Nc2cc(Oc3ccc(NC(=O)c4cccn(C)c4=O)nc3)ccn2)cn1 [Compound 97]	18 nM	7 nM	15 nM	–
Cn1ncc(-c2cc(Oc3ccc(NC(=O)c4cccn(C)c4=O)nc3)ccn2)n1 [Compound 99, 1-methyl-N-(5-((2-(2-methyl-2H-1,2,3-triazol-4-yl)pyridin-4-yl)oxy)pyridin-2-yl)-2-oxo-1,2-dihydropyridine-3-carboxamide]	70 nM	748 nM	534 nM	–
CC(C)n1cccc(C(=O)Nc2ccc(Oc3ccnc(-c4cn(C)cn4)c3)cn2)c1=O [Compound 100]	8 nM	15 nM	15 nM	–
Cc1ccc(-c2cc(Oc3ccc(NC(=O)c4cccn(C(C)C)c4=O)nc3)ccn2)cn1 [Compound 101]	7 nM	22 nM	31 nM	–
CC(C)n1cccc(C(=O)Nc2ccc(Oc3ccnc(-c4nccn4C)c3)cn2)c1=O [Compound 102]	36 nM	132 nM	151 nM	–
CC(C)n1cccc(C(=O)Nc2ccc(Oc3ccnc(-c4cn(C)nn4)c3)cn2)c1=O [Compound 103]	6 nM	7 nM	9 nM	–
Cn1cc(-c2cc(Oc3ccc(NC(=O)c4cccn(C5CC5)c4=O)nc3)ccn2)cn1 [Compound 104, 1-cyclopropyl-N-(5-((2-(1-methyl-1H-pyrazol-4-yl)pyridin-4-yl)oxy)pyridin-2-yl)-2-oxo-1,2-dihydropyridine-3-carboxamide]	5 nM	14 nM	6 nM	–
Cn1cc(-c2cc(Oc3ccc(NC(=O)c4ccc(N)n(C)c4=O)nc3)ccn2)cn1 [Compound 105, 6-amino-1-methyl-N-(5-((2-(1-methyl-1H-pyrazol-4-yl)pyridin-4-yl)oxy)pyridin-2-yl)-2-oxo-1,2-dihydropyridine-3-carboxamide]	9 nM	69 nM	84 nM	–
CNc1ccc(C(=O)Nc2ccc(Oc3ccnc(-c4cnn(C)c4)c3)cn2)c(=O)n1C [Compound 106, 1-methyl-N-(5-((2-(1-methyl-1H-pyrazol-4-yl)pyridin-4-yl)oxy)pyridin-2-yl)-6-(methylamino)-2-oxo-1,2-dihydropyridine-3-carboxamide]	7 nM	10 nM	7 nM	–
Cn1cnc(-c2cc(Oc3ccc(NC(=O)c4cccn(C)c4=O)nc3)ccn2)c1 [Compound 107, 1-methyl-N-(5-((2-(1-methyl-1H-imidazol-4-yl)pyridin-4-yl)oxy)pyridin-2-yl)-2-oxo-1,2-dihydropyridine-3-carboxamide]	9 nM	17 nM	35 nM	–
[2H]C([2H])([2H])n1c(C)ncc(C(=O)Nc2ccc(Oc3ccnc(-c4cnn(C)c4)c3)cn2)c1=O [Compound 128, 2-methyl-1-(methyl-d3)-N-(5-((2-(1-methyl-1H-pyrazol-4-yl)pyridin-4-yl)oxy)pyridin-2-yl)-6-oxo-1,6-dihydropyrimidine-5-carboxamide]	5 nM	6 nM	–	2 nM
[2H]C([2H])([2H])n1cc(-c2cc(Oc3ccc(NC(=O)c4cnc(C)n(C)c4=O)nc3)ccn2)cn1 [Compound 129, 1,2-dimethyl-N-(5-((2-(1-(methyl-d3)-1H-pyrazol-4-yl)pyridin-4-yl)oxy)pyridin-2-yl)-6-oxo-1,6-dihydropyrimidine-5-carboxamide]	4 nM	7 nM	–	2 nM

Now from value to molecule, other results behind:

IC50 [1]	IC50 [2]	IC50 (Ba/F3^BCR-FMS-11 cells; 72 h)	Structure (SMILES)	IC50 (Ba/F3^BCR-FMS-11 cells; 72 hours)
11 nM	24 nM	12 nM	CC(C)n1cccc(C(=O)Nc2ncc(Oc3ccnc(-c4cnn(C)c4)c3)cc2F)c1=O [Compound 108]	–
19 nM	10 nM	8 nM	Cc1cc(Nc2cc(Oc3ccc(NC(=O)c4cnc(C)n(C)c4=O)nc3)ccn2)n[nH]1 [Compound 111, 1,2-dimethyl-N-(5-((2-((5-methyl-1H-pyrazol-3-yl)amino)pyridin-4-yl)oxy)pyridin-2-yl)-6-oxo-1,6-dihydropyrimidine-5-carboxamide]	–
19 nM	10 nM	22 nM	Cc1cc(Nc2cc(Oc3ccc(NC(=O)c4cccn(C)c4=O)nc3)ccn2)n[nH]1 [Compound 112]	–
34 nM	17 nM	48 nM	Cc1ncc(C(=O)Nc2ccc(Oc3ccnc(-c4cnn(CCO)c4)c3)cn2)c(=O)n1C [Compound 113, N-(5-((2-(1-(2-hydroxyethyl)-1H-pyrazol-4-yl)pyridin-4-yl)oxy)pyridin-2-yl)-1,2-dimethyl-6-oxo-1,6-dihydropyrimidine-5-carboxamide]	–
42 nM	35 nM	79 nM	Cc1ncc(-c2cc(Oc3ccc(NC(=O)c4cccn(C)c4=O)nc3)ccn2)s1 [Compound 114]	–
46 nM	22 nM	38 nM	Cc1ccc(-c2cc(Oc3ccc(NC(=O)c4cccn(C)c4=O)nc3)ccn2)cn1 [Compound 115]	–
105 nM	21 nM	201 nM	Cc1ncc(C(=O)Nc2ccc(Oc3ccnc(-c4cccs4)c3)cn2)c(=O)n1C [Compound 116]	–
7 nM	8 nM	9 nM	Cc1ncc(C(=O)Nc2ccc(Oc3ccnc(-c4ccn(C)c4)c3)cn2)c(=O)n1C [Compound 117, 1,2-dimethyl-N-(5-((2-(1-methyl-1H-pyrrol-3-yl)pyridin-4-yl)oxy)pyridin-2-yl)-6-oxo-1,6-dihydropyrimidine-5-carboxamide]	–
19 nM	21 nM	6 nM	Cc1cc(C(=O)Nc2ccc(Oc3ccnc(-c4cnn(C)c4)c3)cn2)c(=O)n(C)c1 [Compound 118]	–
52 nM	21 nM	39 nM	Cc1nc(-c2cc(Oc3ccc(NC(=O)c4cnc(C)n(C)c4=O)nc3)ccn2)cs1 [Compound 120]	–
19 nM	16 nM	25 nM	Cc1ncc(C(=O)Nc2ccc(Cc3ccnc(-c4cnn(C)c4)c3)cn2)c(=O)n1C [Compound 123, 1,2-dimethyl-N-(5-((2-(1-methyl-1H-pyrazol-4-yl)pyridin-4-yl)methyl)pyridin-2-yl)-6-oxo-1,6-dihydropyrimidine-5-carboxamide]	–
16 nM	19 nM	11 nM	Cc1cc(C(=O)Nc2ccc(Oc3ccnc(-c4ccn(C)c4)c3)cn2)c(=O)n(C)c1 [Compound 124]	–
7 nM	24 nM	17 nM	CC(C)n1cccc(C(=O)Nc2ccc(Oc3ccnc(-c4ccn(C)c4)c3)cn2)c1=O [Compound 125]	–
25 nM	30 nM	28 nM	CC(C)n1nccc(C(=O)Nc2ccc(Oc3ccnc(-c4ccn(C)c4)c3)cn2)c1=O [Compound 126]	–
21 nM	7 nM	15 nM	Cc1ncc(C(=O)Nc2ccc(Oc3ccnc(-c4cn[nH]c4)c3)cn2)c(=O)n1C [Compound 130, N-(5-((2-(1H-pyrazol-4-yl)pyridin-4-yl)oxy)pyridin-2-yl)-1,2-dimethyl-6-oxo-1,6-dihydropyrimidine-5-carboxamide]	–
76 nM	56 nM	396 nM	Cc1ncc(C(=O)Nc2ccc(Oc3ccnc(-c4cnn(C)c4)c3)cn2)c(=O)[nH]1 [Compound 131, 2-methyl-N-(5-((2-(1-methyl-1H-pyrazol-4-yl)pyridin-4-yl)oxy)pyridin-2-yl)-6-oxo-1,6-dihydropyrimidine-5-carboxamide]	–
198 nM	2110 nM	1190 nM	Cn1cc(-c2cc(Oc3ccc(NC(=O)c4cnc(CCO)[nH]c4=O)nc3)ccn2)cn1 [Compound 132, 2-(2-hydroxyethyl)-N-(5-((2-(1-methyl-1H-pyrazol-4-yl)pyridin-4-yl)oxy)pyridin-2-yl)-6-oxo-1,6-dihydropyrimidine-5-carboxamide]	–
548 nM	> 3000 nM	> 3300 nM	Cn1cc(-c2cc(Oc3ccc(NC(=O)c4cnc(CO)[nH]c4=O)nc3)ccn2)cn1 [Compound 133, 2-(hydroxymethyl)-N-(5-((2-(1-methyl-1H-pyrazol-4-yl)pyridin-4-yl)oxy)pyridin-2-yl)-6-oxo-1,6-dihydropyrimidine-5-carboxamide]	–
